Experimental data as given in patent US11026888B1, “Functional beverage compositions and methods of using and making same” (Nutrition Therapeutics, Inc., priority 2019, dated 2021).

Tests used:
[1] = vigorous mixing with water: miscibility / solubility; assay type: physicochemical; details: mixed vigorously
From the text: Over time, the non-polar compounds will aggregate together and fall out of aqueous suspension. […] Beverages manufactured with only polar and non-polar substances would behave and result in a composition having an immiscible and undesirable tactile quality; pomegranate seed oil mixed with water is likely to result in a fatty or oily layer on top of the water, or with CBD, the water surface peppered with crystalline flakes. In most cases, the non-polar components are likely to adhere to the sides of the container.
(§1) For broad-based consumer success, it is desirable that a functional beverage product consistent in flavor, quality, and mouthfeel be manufacturable using an easily replicated process, and be food-safe. Immiscible components can result in material floating on the surface of the beverage, wherein the immiscible materials can shelter can promote the growth of contaminating organisms or provide localized regions survivable from pasteurizing temperatures. Additionally, such immiscible components can become a choking hazard to the unaware consumer. Non-polar compounds mix well with other non-polar compounds.

[2] = dissolving of CBD within pomegranate seed oil; assay type: physicochemical; details: even at refrigeration temperatures
From the text: as §1

SMILES: C=C(C)[C@@H]1CCC(C)=C[C@H]1c1c(O)cc(CCCCC)cc1O [CBD, cannabidiol]
- behaviour in water after vigorous mixing [1]: non-dissolving solid
- dissolving within pomegranate seed oil [2]: successful dissolving
